From patent US11753407B2, “Compounds for treating spinal muscular atrophy” (PTC Therapeutics, Inc., priority 2012, dated 2023) come the findings set out here.

Data set [1] deals with SMN2 minigene mRNA (SMN2-A minigene) in HEK293H cells. Put plainly: SMN2 minigene mRNA splicing RT-qPCR assay in cultured cells. The format is cell-based, human. The following applies: Homo sapiens, HEK293-H; concentration increasing full length SMN2 mRNA 1.5-fold relative to vehicle-treated cells; HEK293H cells with SMN2-A minigene, 24 hours, 7-point concentration data; read-out: EC1.5x for production of full length SMN2 mRNA. In short, it runs like this: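 EC1.5× values derive from a 24 h treatment of SMN2-A minigene HEK293H cells and GAPDH-normalized RT-qPCR of exon 7-included minigene mRNA relative to vehicle-treated cells.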

In data set [2] the test system is Smn protein in SMA patient fibroblast cells (GM03813). Put plainly: Smn protein assay in cultured cells (SMN HTRF). The format is cell-based, human. The following applies: SMA patient fibroblast cells, 48 hours; for EC1.5x for Smn protein expression: 7-point concentration curve, SMN HTRF, concentration producing 1.5 times Smn protein vs DMSO vehicle control; for maximum fold (Fold) increase of Smn protein: 7-point concentration data, fold relative to vehicle control. In outline: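 Cells were cultured 72 h, seeded at 5,000/well and dosed with seven concentrations (3.16-fold apart) for 48 h. HTRF on lysates, read at 665 and 620 nm, gave blank-corrected ΔF values relative to DMSO. Potency is reported as EC1.5×, efficacy as maximal fold Smn increase.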

`Cc1cn2nc(-c3cc(=O)n4cc(N5C[C@H]6CNC[C@H]6C5)ccc4n3)cc2c(C)n1` [Compound 746, 2-(4,6-dimethylpyrazolo[1,5-a]pyrazin-2-yl)-7-[(3aR,6aS)-hexahydropyrrolo[3,4-c]pyrrol-2(1H)-yl]-4H-pyrido[1,2-a]pyrimidin-4-one]: the melting point fell in the range of 239 to 242 °C. For the same compound, the EC (1.5-fold increase) in data set [1] was under 0.1 µM. In data set [2], the “EC1.5x for Smn protein expression” value was “**** (an EC1.5x≤0.3 μM is indicated by four stars (****))” and the “maximum fold (Fold) increase of Smn protein” value (from here on “maximum fold (Fold) increase”) is reported as “***** (a fold increase >1.65 is indicated by five stars (*****))”.
Compound `Cc1cn2cc(-c3cc(=O)n4cc(N5CCN(C6CC6)[C@@H](C)C5)ccc4n3)cc(Cl)c2n1` [Compound 535, 2-(8-chloro-2-methylimidazo[1,2-a]pyridin-6-yl)-7-[(3S)-4-cyclopropyl-3-methylpiperazin-1-yl]-4H-pyrido[1,2-a]pyrimidin-4-one] showed a melting point of 253 to 257 °C. The EC (1.5-fold increase) in data set [1] was under 0.1 µM. Besides, in data set [2], the “EC1.5x for Smn protein expression” value is “*** (an EC1.5× between >0.3 μM and ≤1 μM is indicated by three stars (***))”; the “maximum fold (Fold) increase” value was “***** (a fold increase >1.65 is indicated by five stars (*****))”.
`COc1ccc(-c2cc(=O)n3cc(N4CCN[C@@H](C)C4)ccc3n2)cc1` [Compound 12, 2-(4-methoxyphenyl)-7-[(3S)-3-methylpiperazin-1-yl]-4H-pyrido[1,2-a]pyrimidin-4-one] returned a melting point of 158 to 160 °C. In addition, the EC (1.5-fold increase) in data set [1] is 0.3 to 1 µM. For the same compound, in data set [2], the “maximum fold (Fold) increase” value was “*** (a fold increase between >1.35 and ≤1.5 is indicated by three stars (***))”.
`Cc1cn2nc(-c3cc(=O)n4cc(N5CCC(CN6CCCCC6)CC5)ccc4n3)cc2c(C)n1` [Compound 572, 2-(4,6-dimethylpyrazolo[1,5-a]pyrazin-2-yl)-7-[4-(piperidin-1-ylmethyl)piperidin-1-yl]-4H-pyrido[1,2-a]pyrimidin-4-one] gave a melting point of 192 to 195 °C. Further, in data set [1], the EC (1.5-fold increase) fell in the range of 0.3 to 1 µM. In data set [2], the “EC1.5x for Smn protein expression” value is “** (an EC1.5× between >1 μM and ≤3 μM is indicated by two stars (**))”; the “maximum fold (Fold) increase” value was “**** (a fold increase between >1.5 and ≤1.65 is indicated by four stars (****))”.
For `Cc1cn2nc(-c3cc(=O)n4cc(N5CC[C@H](CN(C)C)C5)ccc4n3)cc2c(C)n1` [Compound 799, 7-{(3R)-3-[(dimethylamino)methyl]pyrrolidin-1-yl}-2-(4,6-dimethylpyrazolo[1,5-a]pyrazin-2-yl)-4H-pyrido[1,2-a]pyrimidin-4-one], the melting point is 229 to 231 °C. The EC (1.5-fold increase) in data set [1] is under 0.1 µM. Also, in data set [2], the “EC1.5x for Smn protein expression” value is reported as “**** (an EC1.5x≤0.3 μM is indicated by four stars (****))” and the “maximum fold (Fold) increase” value is reported as “***** (a fold increase >1.65 is indicated by five stars (*****))”.
On to `Cc1cn2nc(-c3cc(=O)n4cc(N5CCNCC5)ccc4n3)cc2cn1` [Compound 420, 2-(6-methylpyrazolo[1,5-a]pyrazin-2-yl)-7-(piperazin-1-yl)-4H-pyrido[1,2-a]pyrimidin-4-one], for which the melting point was 202 to 204 °C. Also, the EC (1.5-fold increase) in data set [1] is under 0.1 µM. Moreover, in data set [2], the “EC1.5x for Smn protein expression” value is “**** (an EC1.5x≤0.3 μM is indicated by four stars (****))”; the “maximum fold (Fold) increase” value is “**** (a fold increase between >1.5 and ≤1.65 is indicated by four stars (****))”.
Compound `Cc1nc2ccc(-c3cc(=O)n4cc(N5CCNCC5)ccc4n3)cn2c1C` [Compound 125, 2-(2,3-dimethylimidazo[1,2-a]pyridin-6-yl)-7-(piperazin-1-yl)-4H-pyrido[1,2-a]pyrimidin-4-one] displayed a melting point of 236 to 240 °C. Besides, in data set [1], the EC (1.5-fold increase) was 0.3 to 1 µM. For the same compound, the “maximum fold (Fold) increase” value in data set [2] was “*** (a fold increase between >1.35 and ≤1.5 is indicated by three stars (***))”.
As to `CCCc1nc(C)cn2nc(-c3cc(=O)n4cc(N5CCN[C@H](C)C5)ccc4n3)cc12` [Compound 727, 7-[(3R)-3-methylpiperazin-1-yl]-2-(6-methyl-4-propylpyrazolo[1,5-a]pyrazin-2-yl)-4H-pyrido[1,2-a]pyrimidin-4-one], the melting point was 195 to 197 °C. Besides, in data set [1], the EC (1.5-fold increase) was under 0.1 µM. For the same compound, in data set [2], the “EC1.5x for Smn protein expression” value is “**** (an EC1.5x≤0.3 μM is indicated by four stars (****))” and the “maximum fold (Fold) increase” value is listed as “***** (a fold increase >1.65 is indicated by five stars (*****))”.
In turn, `C[C@@H]1CN(c2ccc3nc(-c4cnc5c(ccn5C)c4)cc(=O)n3c2)C[C@H](C)N1` [Compound 130, 7-[(3R,5S)-3,5-dimethylpiperazin-1-yl]-2-(1-methyl-1H-pyrrolo[2,3-b]pyridin-5-yl)-4H-pyrido[1,2-a]pyrimidin-4-one] returned a melting point of 265 to 268 °C. Besides, in data set [1], the EC (1.5-fold increase) was in the range of 1 to 3 µM. Also, in data set [2], the “EC1.5x for Smn protein expression” value is “* (An EC1.5× for Smn protein expression between >3 μM and ≤10 μM is indicated by one star (*))”; the “maximum fold (Fold) increase” value was “*** (a fold increase between >1.35 and ≤1.5 is indicated by three stars (***))”.
Turning to `Cc1cn2cc(-c3cc(=O)n4cc(C5CCN(C(C)C)CC5)ncc4n3)ccc2n1` [Compound 627, 2-(2-methylimidazo[1,2-a]pyridin-6-yl)-7-[1-(propan-2-yl)piperidin-4-yl]-4H-pyrazino[1,2-a]pyrimidin-4-one], the melting point lay in the range of 229 to 231 °C. Besides, in data set [1], the EC (1.5-fold increase) fell in the range of 0.1 to 0.3 µM. For the same compound, in data set [2], the “EC1.5x for Smn protein expression” value is “** (an EC1.5× between >1 μM and ≤3 μM is indicated by two stars (**))”; the “maximum fold (Fold) increase” value was “**** (a fold increase between >1.5 and ≤1.65 is indicated by four stars (****))”.
In turn, `Cc1cn2cc(-c3cc(=O)n4cc(N5CCN(C(C)C)CC5)ccc4n3)cc(F)c2n1` [Compound 373, 2-(8-fluoro-2-methylimidazo[1,2-a]pyridin-6-yl)-7-[4-(propan-2-yl)piperazin-1-yl]-4H-pyrido[1,2-a]pyrimidin-4-one] had a melting point of 260 to 264 °C. Also, the EC (1.5-fold increase) in data set [1] is under 0.1 µM. In addition, in data set [2], the “EC1.5x for Smn protein expression” value was “**** (an EC1.5x≤0.3 μM is indicated by four stars (****))”; the “maximum fold (Fold) increase” value is “**** (a fold increase between >1.5 and ≤1.65 is indicated by four stars (****))”.
`Cc1cn2cc(-c3cc(=O)n4cc(N5C[C@@H](C)N[C@@H](C)C5)ccc4n3)cc(C3CC3)c2n1` [Compound 717, 2-(8-cyclopropyl-2-methylimidazo[1,2-a]pyridin-6-yl)-7-[(3R,5S)-3,5-dimethylpiperazin-1-yl]-4H-pyrido[1,2-a]pyrimidin-4-one]: the melting point fell in the range of 205 to 209 °C. Also, the EC (1.5-fold increase) in data set [1] was in the range of 0.1 to 0.3 µM. Further, in data set [2], the “EC1.5x for Smn protein expression” value was “*** (an EC1.5× between >0.3 μM and ≤1 μM is indicated by three stars (***))”; the “maximum fold (Fold) increase” value is “***** (a fold increase >1.65 is indicated by five stars (*****))”.
For `Cc1cn2nc(-c3cc(=O)n4cc(N5CCN[C@@H](C)C5)ccc4n3)cc2c(C)n1` [Compound 121, 2-(4,6-dimethylpyrazolo[1,5-a]pyrazin-2-yl)-7-[(3S)-3-methylpiperazin-1-yl]-4H-pyrido[1,2-a]pyrimidin-4-one], the melting point lay in the range of 192 to 194 °C. Besides, in data set [1], the EC (1.5-fold increase) was under 0.1 µM. Besides, in data set [2], the “EC1.5x for Smn protein expression” value is given as “**** (an EC1.5x≤0.3 μM is indicated by four stars (****))” and the “maximum fold (Fold) increase” value is “***** (a fold increase >1.65 is indicated by five stars (*****))”.
On to `COc1ccc(-c2cc(=O)n3cc(N4CCNCC4)ccc3n2)cc1Cl` [Compound 110, 2-(3-chloro-4-methoxyphenyl)-7-(piperazin-1-yl)-4H-pyrido[1,2-a]pyrimidin-4-one], for which the melting point was 201 to 203 °C. In data set [1], the EC (1.5-fold increase) is 0.1 to 0.3 µM. Besides, in data set [2], the “maximum fold (Fold) increase” value was “*** (a fold increase between >1.35 and ≤1.5 is indicated by three stars (***))”.
The compound `COc1cccc(-c2cc(=O)n3cc(N4CCNCC4)ccc3n2)n1` [Compound 227, 2-(6-methoxypyridin-2-yl)-7-(piperazin-1-yl)-4H-pyrido[1,2-a]pyrimidin-4-one] yielded a melting point of 214 to 218 °C. Moreover, the EC (1.5-fold increase) in data set [1] was in the range of 1 to 3 µM. Moreover, the “maximum fold (Fold) increase” value in data set [2] was “*** (a fold increase between >1.35 and ≤1.5 is indicated by three stars (***))”.
In turn, `CN1CCCN(c2ccc3nc(-c4ccc5c(c4)OCCO5)cc(=O)n3c2)CC1` [Compound 39, 2-(2,3-dihydro-1,4-benzodioxin-6-yl)-7-(4-methyl-1,4-diazepan-1-yl)-4H-pyrido[1,2-a]pyrimidin-4-one] gave a melting point of 150 to 152 °C. Also, the EC (1.5-fold increase) in data set [1] was in the range of 3 to 30 µM. For the same compound, the “maximum fold (Fold) increase” value in data set [2] is given as “* (A maximum fold increase of ≤1.2 is indicated by one star (*))”.
`O=c1cc(-c2ccc(F)c(C(F)(F)F)c2)nc2ccc(N3CCNCC3)cn12` [Compound 77, 2-[4-fluoro-3-(trifluoromethyl)phenyl]-7-(piperazin-1-yl)-4H-pyrido[1,2-a]pyrimidin-4-one] had a melting point of 214 to 217 °C. Further, the EC (1.5-fold increase) in data set [1] was 0.3 to 1 µM. In addition, in data set [2], the “maximum fold (Fold) increase” value is “** (a fold increase between >1.2 and ≤1.35 is indicated by two stars (**))”.
